PubChem BioAssay (NCI)
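Where inhibition never reached the appropriate level, the endpoint shown equals the highest concentration tested. Otherwise, values were interpolated linearly from a five-concentration, 48-hour dose response in 96-well plates. The concentration for full growth arrest is given as TGI.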

Experiments:
Assay in all cases: NCI tumour cell line growth inhibition, 48 h
A498 renal = system: A498 renal
ACHN renal = system: ACHN renal
CCRF-CEM leukemia = system: CCRF-CEM leukemia
COLO 205 colon = system: COLO 205 colon
HL-60(TB) leukemia = system: HL-60(TB) leukemia
HOP-92 NSCLC = system: HOP-92 NSCLC
HS 578T breast = system: HS 578T breast
HT29 colon = system: HT29 colon
K-562 leukemia = system: K-562 leukemia
KM12 colon = system: KM12 colon
MALME-3M melanoma = system: MALME-3M melanoma
MCF7 breast = system: MCF7 breast
MOLT-4 leukemia = system: MOLT-4 leukemia
PC-3 prostate = system: PC-3 prostate
RPMI-8226 leukemia = system: RPMI-8226 leukemia
SF-268 CNS = system: SF-268 CNS
SNB-75 CNS = system: SNB-75 CNS
U251 CNS = system: U251 CNS
UACC-62 melanoma = system: UACC-62 melanoma
UO-31 renal = system: UO-31 renal

SMILES | TGI (A498 renal) | TGI (ACHN renal) | TGI (CCRF-CEM leukemia) | TGI (COLO 205 colon) | TGI (HL-60(TB) leukemia) | TGI (HOP-92 NSCLC) | TGI (HS 578T breast) | TGI (HT29 colon) | TGI (K-562 leukemia) | TGI (KM12 colon) | TGI (MALME-3M melanoma) | TGI (MCF7 breast) | TGI (MOLT-4 leukemia) | TGI (PC-3 prostate) | TGI (RPMI-8226 leukemia) | TGI (SF-268 CNS) | TGI (SNB-75 CNS) | TGI (U251 CNS) | TGI (UACC-62 melanoma) | TGI (UO-31 renal)
COc1cc2c(cc1O)Cc1c-2[n+](C)cc2cc(OC)c(OC)cc12 | > 100 µM | > 100 µM | > 24.9 µM | > 100 µM | > 100 µM | > 100 µM | > 100 µM | > 100 µM | > 100 µM | > 100 µM | > 100 µM | > 100 µM | > 39.4 µM | > 100 µM | > 100 µM | > 100 µM | > 100 µM | 21.5 µM | > 77.9 µM | > 100 µM
COc1ccc(-n2c(Cn3nnc(-c4cccnc4)n3)nn(C3OC(COC(=O)c4ccccc4)C(OC(=O)c4ccccc4)C3OC(=O)c3ccccc3)c2=S)cc1 (stereo not given) | > 100 µM | > 100 µM | > 100 µM | > 100 µM | > 100 µM | > 100 µM | > 100 µM | > 100 µM | > 100 µM | > 100 µM | > 100 µM | > 100 µM | > 100 µM | > 100 µM | > 100 µM | > 100 µM | > 100 µM | > 100 µM | > 100 µM | > 100 µM
COC(=O)c1ccc(C)cc1C1CN=NC12Cc1cc(C)ccc1C2=O (stereo not given) | 55.5 µM | > 100 µM | > 100 µM | 19.1 µM | 16.3 µM | 84.7 µM | 41.3 µM | 15.2 µM | > 68.1 µM | 44.1 µM | > 100 µM | 24 µM | > 86.6 µM | 58.1 µM | 66.2 µM | > 100 µM | > 68.1 µM | > 70.6 µM | > 87.3 µM | > 85.1 µM
CC[C@@H]1CC[C@@H]2[C@H](CC[C@]3(C)[C@@H](OC(C)=O)CC[C@@H]23)[C@H]1C(=O)OC | > 100 µM | > 100 µM | 47.9 µM | 29.5 µM | 31.3 µM | 37.3 µM | > 100 µM | 67.2 µM | 40.1 µM | 52.1 µM | 33.3 µM | 60.3 µM | 42 µM | 67.3 µM | 46.5 µM | 81.1 µM | 69 µM | 43.3 µM | 49.4 µM | > 100 µM
COc1cc2cc3c4cc(OC)c(OC)cc4cc[n+]3c(C)c2cc1OC | > 100 µM | > 100 µM | > 100 µM | > 100 µM | > 100 µM | > 100 µM | > 100 µM | > 100 µM | > 100 µM | > 100 µM | > 100 µM | > 100 µM | > 100 µM | > 100 µM | > 100 µM | > 100 µM | 45.7 µM | > 100 µM | 98.6 µM | > 100 µM
